Consider 13 compounds from patent US20250302815A1, “PROTEIN TYROSINE PHOSPHATASE TARGETING LIGANDS” (CALICO LIFE SCIENCES LLC, priority 2021, published 2025).

For test [1], the target named is T1, PTPN2 (B16F10.4 cells) (Mus musculus, UniProt Q06180).
T1 construct: HiBiT; host or cells: B16F10.4
T1 sequence (Q06180 1-406): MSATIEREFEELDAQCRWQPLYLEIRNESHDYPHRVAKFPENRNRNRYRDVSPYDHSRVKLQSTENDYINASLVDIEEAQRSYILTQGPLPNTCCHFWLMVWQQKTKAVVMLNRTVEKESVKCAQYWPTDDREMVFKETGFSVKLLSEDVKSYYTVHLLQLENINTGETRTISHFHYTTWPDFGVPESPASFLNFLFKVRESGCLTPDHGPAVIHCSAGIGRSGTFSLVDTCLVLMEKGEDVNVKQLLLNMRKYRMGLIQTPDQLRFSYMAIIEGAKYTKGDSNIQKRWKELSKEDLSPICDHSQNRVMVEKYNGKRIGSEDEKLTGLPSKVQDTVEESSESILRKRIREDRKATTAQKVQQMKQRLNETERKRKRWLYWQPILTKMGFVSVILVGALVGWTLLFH
Briefly: HiBiT Degradation B16F10.4 PTPN2. Format: cell-based. The conditions noted are these: 24.0 hours. Background: HiBiT is a short tag that completes a luciferase, so light tracks the accessible tagged protein.

Test [2] addresses T2, PTPN2 (HiBIT-PTPN2 in 293T.109 cells) (Homo sapiens, UniProt P17706).
T2 construct: expressed in transfected cells; host or cells: 293T.109 (293T WT from ATCC)
T2 sequence (P17706 1-415): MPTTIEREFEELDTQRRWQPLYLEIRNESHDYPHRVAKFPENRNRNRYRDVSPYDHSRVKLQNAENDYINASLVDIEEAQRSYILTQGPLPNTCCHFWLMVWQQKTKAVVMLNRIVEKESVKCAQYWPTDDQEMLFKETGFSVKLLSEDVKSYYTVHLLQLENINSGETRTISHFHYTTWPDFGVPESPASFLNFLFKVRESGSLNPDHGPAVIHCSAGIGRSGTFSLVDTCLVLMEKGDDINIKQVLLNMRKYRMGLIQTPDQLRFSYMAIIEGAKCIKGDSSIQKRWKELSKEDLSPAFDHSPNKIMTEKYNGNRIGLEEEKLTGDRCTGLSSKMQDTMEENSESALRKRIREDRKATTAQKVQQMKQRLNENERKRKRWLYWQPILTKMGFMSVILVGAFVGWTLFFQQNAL
Put plainly: HiBiT Degradation 293T.109 PTPN2 (Nano-Glo HiBiT Lytic Assay). The test is classed as cell-based. The conditions noted are these: 24.0 hours. The essentials: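 293T.109 cells with ectopic N-terminal HiBiT-tagged PTPN2 (5000/well) exposed to compounds for 24 h at 37 °C, 5% CO2; 11-point half-log titration from 10 μM top, duplicates. Remaining HiBiT-PTPN2 read as luminescence with Nano-Glo HiBiT lytic reagent, normalised to untreated cells (0%) and reagent-free wells.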

For `Cn1c(=O)n(C2CCC(=O)NC2=O)c2ccc(N3CCC(N4CCN(c5cccc(CS(=O)(=O)N6CCC(Nc7cccc(-c8sc(C(=O)O)c(OCC(=O)O)c8Cl)c7)CC6)c5)C4=O)CC3)cc21` (centres unmarked) [Example 142, 3-(carboxymethoxy)-4-chloro-5-(3-((1-((3-(3-(1-(1-(2,6-dioxopiperidin-3-yl)-3-methyl-2-oxo-2,3-dihydro-1H-benzo[d]imidazol-5-yl)piperidin-4-yl)-2-oxoimidazolidin-1-yl)benzyl)sulfonyl)piperidin-4-yl)amino)phenyl)thiophene-2-carboxylic acid], the results for the DC50 in test [1] and in test [2] were 50 to 200 nM and less than 50 nM, respectively.
On the same counts, the results for `Cn1c(=O)n(C2CCC(=O)NC2=O)c2ccc(OC3CN(C(=O)Nc4cccc(CS(=O)(=O)N5CC[C@H](Nc6cccc(-c7sc(C(=O)O)c(OCC(=O)O)c7Cl)c6)CC5(C)C)c4)C3)cc21` (some centres unmarked) [Example 116] are 50 to 200 nM and 50 to 200 nM.
For `CC1(C)C[C@@H](Nc2cccc(-c3sc(C(=O)O)c(OCC(=O)O)c3Cl)c2)CCN1S(=O)(=O)Cc1cccc(NC(=O)N2CCC(Oc3cccc4c3CN(C3CCC(=O)NC3=O)C4=O)CC2)c1` (some centres unmarked) [Example 72], the DC50 in test [1] and in test [2] was 50 to 200 nM throughout.
With `CC1(C)C[C@@H](Nc2cccc(-c3sc(C(=O)O)c(OCC(=O)O)c3Cl)c2)CCN1S(=O)(=O)Cc1cccc(NC(=O)NCCCc2ccc3c4c(cccc24)C(=O)N3C2CCC(=O)NC2=O)c1` (stereo partly drawn) [Example 156, 3-(carboxymethoxy)-4-chloro-5-(3-(((4S)-1-((3-(3-(3-(1-(2,6-dioxopiperidin-3-yl)-2-oxo-1,2-dihydrobenzo[cd]indol-6-yl)propyl)ureido)benzyl)sulfonyl)-2,2-dimethylpiperidin-4-yl)amino)phenyl)thiophene-2-carboxylic acid], the DC50 in test [1] and in test [2] was less than 50 nM each time.
As to `CC1(C)C[C@@H](Nc2cccc(-c3sc(C(=O)O)c(OCC(=O)O)c3Cl)c2)CCN1S(=O)(=O)Cc1cccc(NC(=O)CNc2ccc3c(c2)CN(C2CCC(=O)NC2=O)C3=O)c1` (stereo partly drawn) [Example 37, 3-(carboxymethoxy)-4-chloro-5-[3-[[(4S)-1-[[3-[[2-[[2-(2,6-dioxo-3-piperidyl)-1-oxo-isoindolin-5-yl]amino]acetyl]amino]phenyl]methylsulfonyl]-2,2-dimethyl-4-piperidyl]amino]phenyl]thiophene-2-carboxylic acid], the DC50 in test [1] and in test [2] was 200 to 1000 nM in each case.
On to `Cn1c(=O)n(C2CCC(=O)NC2=O)c2ccc(NC3CCN(C(=O)Nc4cccc(CS(=O)(=O)N5CC[C@H](Nc6cccc(-c7sc(C(=O)O)c(OCC(=O)O)c7Cl)c6)CC5(C)C)c4)CC3)cc21` (stereo partly drawn) [Example 81, 3-(carboxymethoxy)-4-chloro-5-[3-[[(4S)-1-[[3-[[4-[[1-(2,6-dioxo-3-piperidyl)-3-methyl-2-oxo-benzimidazol-5-yl]amino]piperidine-1-carbonyl]amino]phenyl]methylsulfonyl]-2,2-dimethyl-4-piperidyl]amino]phenyl]thiophene-2-carboxylic acid], for which the DC50 in test [1] and in test [2] was 50 to 200 nM throughout.
As for `O=C(O)COc1c(C(=O)O)sc(-c2cccc(NC3CCN(S(=O)(=O)Cc4cccc(NC(=O)C5CCN(C(=O)CNc6cccc7c6C(=O)N(C6CCC(=O)NC6=O)C7=O)CC5)c4)CC3)c2)c1Cl` (centres unmarked) [Example 16], the results for the 50% degradation concentration (DC50) in test [1] and in test [2] were no less than 1000 nM and 200 to 1000 nM, respectively.
On the same counts, the results for `Cn1c(=O)n(C2CCC(=O)NC2=O)c2ccc([C@H]3CN(C(=O)Nc4cccc(CS(=O)(=O)N5CC[C@H](Nc6cccc(-c7sc(C(=O)O)c(OCC(=O)O)c7Cl)c6)CC5(C)C)c4)CC[C@@H]3F)cc21` (stereo partly drawn) [Example 214, 3-(carboxymethoxy)-4-chloro-5-[3-[[(4S)-1-[[3-[[(3S,4S)-3-[1-(2,6-dioxo-3-piperidyl)-3-methyl-2-oxo-benzimidazol-5-yl]-4-fluoro-piperidine-1-carbonyl]amino]phenyl]methylsulfonyl]-2,2-dimethyl-4-piperidyl]amino]phenyl]thiophene-2-carboxylic acid] are 50 to 200 nM and 200 to 1000 nM.
On the same counts, the results for `Cn1c(=O)n(C2CCC(=O)NC2=O)c2ccc([C@@H]3CN(C(=O)Nc4cccc(CS(=O)(=O)N5CC[C@H](Nc6cccc(-c7sc(C(=O)O)c(OCC(=O)O)c7Cl)c6)CC5(C)C)c4)CC[C@H]3F)cc21` (stereo partly drawn) [Example 213, 3-(carboxymethoxy)-4-chloro-5-[3-[[(4S)-1-[[3-[[(3R,4R)-3-[1-(2,6-dioxo-3-piperidyl)-3-methyl-2-oxo-benzimidazol-5-yl]-4-fluoro-piperidine-1-carbonyl]amino]phenyl]methylsulfonyl]-2,2-dimethyl-4-piperidyl]amino]phenyl]thiophene-2-carboxylic acid] are 50 to 200 nM and no less than 1000 nM.
Turning to `Cn1c(=O)n(C2CCC(=O)NC2=O)c2ccc(N3CCC(OCC(=O)Nc4cccc(CS(=O)(=O)N5CC[C@H](Nc6cccc(-c7sc(C(=O)O)c(OCC(=O)O)c7Cl)c6)CC5(C)C)c4)CC3)cc21` (stereo partly drawn) [Example 105, 3-(carboxymethoxy)-4-chloro-5-[3-[[(4S)-1-[[3-[[2-[[1-[1-(2,6-dioxo-3-piperidyl)-3-methyl-2-oxo-benzimidazol-5-yl]-4-piperidyl]oxy]acetyl]amino]phenyl]methylsulfonyl]-2,2-dimethyl-4-piperidyl]amino]phenyl]thiophene-2-carboxylic acid], the DC50 in test [1] fell in the range of 200 to 1000 nM; in test [2], 50 to 200 nM.
On the same counts, the results for `Cn1c(=O)n(C2CCC(=O)NC2=O)c2ccc(N3CCN(C(=O)Nc4cccc(CS(=O)(=O)N5CC[C@H](Nc6cccc(-c7sc(C(=O)O)c(OCC(=O)O)c7Cl)c6)CC5(C)C)c4)CC3)cc21` (stereo partly drawn) [Example 80, 3-(Carboxymethoxy)-4-chloro-5-[3-[[(4S)-1-[[3-[[4-[1-(2,6-dioxo-3-piperidyl)-3-methyl-2-oxo-benzimidazol-5-yl]piperazine-1-carbonyl]amino]phenyl]methylsulfonyl]-2,2-dimethyl-4-piperidyl]amino]phenyl]thiophene-2-carboxylic acid] are 50 to 200 nM and 50 to 200 nM.
In the same order, the values of `CC1(C)C[C@@H](Nc2cccc(-c3sc(C(=O)O)c(OCC(=O)O)c3Cl)c2)CCN1S(=O)(=O)Cc1cccc(NC(=O)CNc2ccc3c(c2)C(=O)N(C2CCC(=O)NC2=O)C3=O)c1` (stereo partly drawn) [Example 34, 3-(carboxymethoxy)-4-chloro-5-[3-[[(4S)-1-[[3-[[2-[[2-(2,6-dioxo-3-piperidyl)-1,3-dioxo-isoindolin-5-yl]amino]acetyl]amino]phenyl]methylsulfonyl]-2,2-dimethyl-4-piperidyl]amino]phenyl]thiophene-2-carboxylic acid] are 200 to 1000 nM and 200 to 1000 nM.
In the same order, the values of `Cn1c(=O)n(C2CCC(=O)NC2=O)c2ccc(C3CCN(C(=O)Nc4cccc(CS(=O)(=O)N5CCC(Nc6cccc(-c7sc(C(=O)O)c(OCC(=O)O)c7Cl)c6)CC5(C)C)c4F)CC3)cc21` (centres unmarked) [Example 115, 3-(carboxymethoxy)-4-chloro-5-[3-[[1-[[3-[[4-[1-(2,6-dioxo-3-piperidyl)-3-methyl-2-oxo-benzimidazol-5-yl]piperidine-1-carbonyl]amino]-2-fluoro-phenyl]methylsulfonyl]-2,2-dimethyl-4-piperidyl]amino]phenyl]thiophene-2-carboxylic acid] are 200 to 1000 nM and 50 to 200 nM.

What is called DC50 is the concentration at which degradation of the target reaches its halfway point.
